Columns and labels:
[1] = system: IL-17A-induced G-CSF production in human normal keratinocyte (NHK); experiment: NHK assay: IL-17A-induced G-CSF production in normal human keratinocytes; type: cell-based; settings: 24 h, IL-17A 5 ng/mL, average if tested more than once
Experimental: IL-17A acts directly on keratinocytes through binding to dimeric receptor IL-17RA/RC and drives the production of a number of inflammatory mediators known to be elevated in psoriasis lesional tissue. IL-17A small molecule inhibitors that block the IL-17A to interact with IL-17R would inhibit the IL-17A signaling in its targeted cells such as keratinocytes. The compound functional activity is evaluated for its impact on IL-17A-induced G-CSF production in human normal keratinocyte (NHK).
Adult normal human keratinocytes are cultured in keratinocyte growth medium (Lonza) in a flask till reaching ˜90% confluence, then cells are transferred to a 384-well plate at density of 3000-4000 cell/well. Recombinant human IL-17A (Gibco PHC9174) is pre-incubated with titrated compound or DMSO for 1 h at rt then added to the cell culture plate. The final concentration of IL-17A is 5 ng/mL and DMSO is 0.2%, in the culture containing 5% FBS. Cells are cultured/treated for 24 h at 37° C. Supernatants are collected and G-CSF production is measured through HTRF technology using Human G-CSF Kit (CisBio). G-CSF concentration was extrapolated from the standard curve and IC50 is determined using GraphPad Prism. Cell viability is also evaluated using CellTiter-Glo kit (Promega) and effect of compound on cell viability is compared to DMSO control.

IL-17A : IL-17RA binding = target: T1, IL-17A : IL-17RA binding (Homo sapiens, UniProt Q16552, K93Q); experiment: IL-17A(FLAG-tagged):IL-17RA(His-tagged) binding disruption Eu-HTRF assay, Protocol 1; settings: FLAG-IL-17A 2.5 nM at 2x final concentration; average if tested more than once
T1 construct: Name: IL-17A-Flag
T1 sequence (Q16552 with tags, fused parts or gaps K93Q): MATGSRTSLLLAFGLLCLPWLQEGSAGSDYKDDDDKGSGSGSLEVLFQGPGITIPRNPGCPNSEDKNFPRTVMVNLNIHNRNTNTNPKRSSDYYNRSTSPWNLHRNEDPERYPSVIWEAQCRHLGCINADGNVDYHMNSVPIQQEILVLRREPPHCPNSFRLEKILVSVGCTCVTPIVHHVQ
Description: An antibody directed against the FLAG tag of IL-17A (SEQ ID NO: 1) is labeled with the HTRF donor chromophore (Europium-cryptate). IL-17A is present as a dimer that is “locked into” this quaternary structure due to the formation of loop-spanning […] disulfide bridges. The construct of IL-17RA used in the assay excludes the […] portion of the receptor and is fused to a C-terminal 10×His tag (SEQ ID NO:2). An antibody directed against the His tag of the IL-17RA chimera is labeled with the HTRF acceptor chromophore (“D2”). The fluorescence-resonance energy transfer (FRET) depends on the vicinity of the donor chromophore to the acceptor, and interruption of the binding between the IL-17A and IL-17RA causes the reduction/loss of FRET. Therefore, this assay allows to evaluate the compound effect on the binding IL-17A and IL-17RA by monitoring the fluorescence intensity of donor vs acceptor. The assay was run using either Protocol 1 or Protocol 2 as described below.
Protocol 1. 40 nl of 2-fold serial diluted compound solution for total 22 dilution points is added into each well of a 1536-well, white, low-volume, non-binding plate (Greiner #782904), then 2 μl of FLAG tagged IL-17A at 2× final concentration (2.5 nM) in solution of PBS+0.01% Triton-X100 is added to each well. The assay plate is briefly centrifuged then incubated for 1 h at rt. A mixed solution is prepared containing 2×5 nM 10HIS×IL-17RA, 2×2.5 nM Eu-anti-FLAG (CISBIO), 2×5 nM D2-anti-HIS (CISBIO) in PBS+0.01% Triton-X100+200 mM Potassium Fluoride (Sigma 60238) and 2 μl of mix is added to each well of the assay plate. The plate is briefly centrifuged then incubated for 2 h at rt. The HTRF intensities at the wavelength of donor (620 nm) and acceptor (665 nm) are measured using BMG Pherastar. The ratio between intensities at two wavelengths is calculated and plotted against the compound concentration and the data is fitted to a one-site competition model to yield IC50 of the compound.

IC50 (IL-17A : IL-17RA binding) | Structure (SMILES) | IC50 ([1]; Homo sapiens, Keratinocyte) | IC50 [1]
< 50 nM | Cc1nonc1C(=O)N[C@H](c1nc2ccc([C@H](NC(=O)CC3CC(F)(F)C3)C3CC3)cc2[nH]1)[C@@H]1C[C@H]2C[C@H]2C1 [Example 254, N—((S)-((1R,3s,5S)-Bicyclo[3.1.0]hexan-3-yl)(6-((R)-cyclopropyl(2-(3,3-difluorocyclobutyl)acetamido)methyl)-1H-benzo[d]imidazol-2-yl)methyl)-4-methyl-1,2,5-oxadiazole-3-carboxamide] | > 100 nM | –
> 100 nM | C[C@@H](NC(=O)CC1CC(F)(F)C1)c1ccc2[nH]c([C@@H](NC(=O)c3ccnn3C)C3CCC(F)(F)CC3)nc2c1 [Example 119, N—((S)-(5-((R)-1-(2-(3,3-Difluorocyclobutyl)acetamido)ethyl)-1H-benzo[d]imidazol-2-yl)(4,4-difluorocyclohexyl)methyl)-1-methyl-1H-pyrazole-5-carboxamide] | < 50 nM | –
> 100 nM | C[C@@H](NC(=O)CCC(F)(F)F)c1ccc2[nH]c([C@@H](NC(=O)c3ncnn3C)C3CCC(F)(F)CC3)nc2c1 [Example 31, N—[(S)-(4,4-Difluorocyclohexyl)-[6-[(1R)-1-(4,4,4-trifluorobutanoylamino)ethyl]-1H-benzimidazol-2-yl]methyl]-2-methyl-1,2,4-triazole-3-carboxamide] | > 100 nM | –
> 100 nM | Cc1nonc1C(=O)N[C@@H](C[C@H]1CCC(F)(F)C1)c1nc2ccc([C@H](NC(=O)CC3CC(F)(F)C3)C3CC3)cc2[nH]1 [Example 235, N—((S)-1-(6-((R)-Cyclopropyl(2-(3,3-difluorocyclobutyl)acetamido)methyl)-1H-benzo[d]imidazol-2-yl)-2-((R)-3,3-difluorocyclopentyl)ethyl)-4-methyl-1,2,5-oxadiazole-3-carboxamide] | > 100 nM | –
> 100 nM | Cn1nccc1C(=O)N[C@H](c1nc2cc(C(NC(=O)CCC(F)(F)F)C3CC3)ccc2[nH]1)C1CCC(F)(F)CC1 (single isomer, unassigned) [Example 55, N—((S)-(5-((R*)-Cyclopropyl(4,4,4-trifluorobutanamido)methyl)-1H-benzo[d]imidazol-2-yl)(4,4-difluorocyclohexyl)methyl)-1-methyl-1H-pyrazole-5-carboxamide] | – | > 100 nM
< 50 nM | Cc1nonc1C(=O)N[C@H](c1nc2cc([C@H](NC(=O)CC3CC(F)(F)C3)C3CC3)ccc2[nH]1)C1CCC(F)(F)CC1 [Example 141, N—((S)-(5-((R)-Cyclopropyl(2-(3,3-difluorocyclobutyl)acetamido)methyl)-1H-benzo[d]imidazol-2-yl)(4,4-difluorocyclohexyl)methyl)-4-methyl-1,2,5-oxadiazole-3-carboxamide] | < 50 nM | –
< 50 nM | CC(C)(OC[C@H](NC(=O)c1nocc1C1CC1)c1nc2cc([C@H](NC(=O)CC3CC(F)(F)C3)C3CC3)ccc2[nH]1)C(F)(F)F [Example 268, 4-Cyclopropyl-N—((R)-1-(5-((R)-cyclopropyl(2-(3,3-difluorocyclobutyl)acetamido)methyl)-1H-benzo[d]imidazol-2-yl)-2-((1,1,1-trifluoro-2-methylpropan-2-yl)oxy)ethyl)isoxazole-3-carboxamide] | 50 to 100 nM | –
50 to 100 nM | C[C@@H](NC(=O)CCC(F)(F)F)c1ccc2[nH]c([C@@H](NC(=O)c3conc3C3CC3)C3CCC(F)(F)CC3)nc2c1 [Example 209, 3-Cyclopropyl-N—((S)-(4,4-difluorocyclohexyl)(5-((R)-1-(4,4,4-trifluorobutanamido)ethyl)-1H-benzo[d]imidazol-2-yl)methyl)isoxazole-4-carboxamide] | < 50 nM | –
> 100 nM | C[C@@H](NC(=O)CCC(F)(F)F)c1ccc2[nH]c([C@@H](NC(=O)c3cnn(CC4CC4(F)F)n3)C3CCC(F)(F)CC3)nc2c1 (stereo partly drawn) [Example 81, N—((S)-(4,4-Difluorocyclohexyl)(5-((R)-1-(4,4,4-trifluorobutanamido)ethyl)-1H-benzo[d]imidazol-2-yl)methyl)-2-((2,2-difluorocyclopropyl)methyl)-2H-1,2,3-triazole-4-carboxamide] | > 100 nM | –

More lines, now with the values behind:

Structure (SMILES) | IC50 (IL-17A : IL-17RA binding) | IC50 ([1]; Homo sapiens, Keratinocyte) | IC50 [1]
C[C@@H](NC(=O)CCC(F)(F)F)c1ccc2nc([C@@H](NC(=O)c3ccccc3)C3CCC(F)(F)CC3)[nH]c2c1 [Example 120, N—((S)-(4,4-Difluorocyclohexyl)(6-((R)-1-(4,4,4-trifluorobutanamido)ethyl)-1H-benzo[d]imidazol-2-yl)methyl)benzamide] | > 100 nM | 50 to 100 nM | –
CC(C)n1nccc1C(=O)N[C@H](c1nc2ccc([C@@H](C)NC(=O)CC(C)C(F)(F)F)cc2[nH]1)C1CCC(F)(F)CC1 (single isomer, unassigned) [Example 135, N—((S)-(4,4-Difluorocyclohexyl)(6-((R)-1-((R*)-4,4,4-trifluoro-3-methylbutanamido)ethyl)-1H-benzo[d]imidazol-2-yl)methyl)-1-isopropyl-1H-pyrazole-5-carboxamide] | > 100 nM | < 50 nM | –
C[C@@H](NC(=O)CCC(F)(F)F)c1ccc2nc([C@@H](NC(=O)c3cnn(CCC(C)(C)C)n3)C3CCC(F)(F)CC3)[nH]c2c1 [Example 67, N—((S)-(4,4-Difluorocyclohexyl)(6-((R)-1-(4,4,4-trifluorobutanamido)ethyl)-1H-benzo[d]imidazol-2-yl)methyl)-2-(3,3-dimethylbutyl)-2H-1,2,3-triazole-4-carboxamide] | > 100 nM | > 100 nM | –
C[C@@H](NC(=O)CCC(F)(F)F)c1ccc2nc([C@@H](NC(=O)c3cnn(CC4CCC4)n3)C3CCC(F)(F)CC3)[nH]c2c1 [Example 62, 2-(Cyclobutylmethyl)-N—((S)-(4,4-difluorocyclohexyl)(6-((R)-1-(4,4,4-trifluorobutanamido)ethyl)-1H-benzo[d]imidazol-2-yl)methyl)-2H-1,2,3-triazole-4-carboxamide] | > 100 nM | > 100 nM | –
C[C@@H](NC(=O)CCC(F)(F)F)c1ccc2[nH]c([C@@H](NC(=O)c3cnnn3CCCC(F)(F)F)C3CCC(F)(F)CC3)nc2c1 [Example 20, N—[(S)-(4,4-Difluorocyclohexyl)-[6-[(1R)-1-(4,4,4-trifluorobutanoylamino)ethyl]-1H-benzimidazol-2-yl]methyl]-3-(4,4,4-trifluorobutyl)triazole-4-carboxamide] | > 100 nM | 50 to 100 nM | –
CC(C)n1nccc1C(=O)N[C@H](c1nc2cc([C@@H](C)NC(=O)CC(C(F)(F)F)C(F)(F)F)ccc2[nH]1)C1CCC(F)(F)CC1 [Example 125, N—((S)-(4,4-Difluorocyclohexyl)(5-((R)-1-(4,4,4-trifluoro-3-(trifluoromethyl)butanamido)ethyl)-1H-benzo[d]imidazol-2-yl)methyl)-1-isopropyl-1H-pyrazole-5-carboxamide] | > 100 nM | < 50 nM | –
CC(CC(=O)N[C@H](C)c1ccc2nc([C@@H](NC(=O)c3ccnn3CC(F)(F)F)C3CCC(F)(F)CC3)[nH]c2c1)C(F)(F)F (single isomer, unassigned) [Example 133, N—((S)-(4,4-Difluorocyclohexyl)(6-((R)-1-((R*)-4,4,4-trifluoro-3-methylbutanamido)ethyl)-1H-benzo[d]imidazol-2-yl)methyl)-1-(2,2,2-trifluoroethyl)-1H-pyrazole-5-carboxamide] | > 100 nM | > 100 nM | –
